± gives the standard deviation of the averaged measurements.
Experiments:
Experiment in all cases: level (log10 ratio to DMSO vehicle control); higher = higher biomarker level / cell amount than vehicle control
[1] = compound: C=CC(=O)OCC(F)(F)C(F)(F)C(F)(F)C(F)(F)COC(=O)C=C [1H,1H,6H,6H-Perfluorohexane-1,6-diol diacrylate]; details: 6700 nM; in DMSO
Description: (§1)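 BioMAP Diversity Plus panel of 12 human primary cell co-culture systems (3C, 4H, LPS, SAg, BT, BF4T, BE3C, CASM3C, HDF3CGF, KF3CT, MyoF, Mphg). Compounds were added 1 h before stimulation and left for 24 h (MyoF 48 h; BT 72 h for soluble read-outs or 6 d for IgG). Biomarkers were read by ELISA, cytotoxicity by SRB, PBMC viability and proliferation by Alamar Blue. Each well value was divided by the mean of 8 DMSO control wells on the same plate and log10 transformed; duplicate blinded samples were tested at 4 concentrations.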

Methotrexate = compound: CN(Cc1cnc2nc(N)nc(N)c2n1)c1ccc(C(=O)N[C@@H](CCC(=O)O)C(=O)O)cc1 [Methotrexate]; details: in DMSO
Description: as §1

[2] = compound: OCCC(F)(F)C(F)(F)C(F)(F)C(F)(F)C(F)(F)C(F)(F)C(F)(F)C(F)(F)F [8:2 Fluorotelomer alcohol]; details: 6700 nM; in DMSO
Description: as §1

[3] = compound: FC(F)(F)COC(OCC(F)(F)F)OCC(F)(F)F [tris(Trifluoroethoxy)methane]; details: in DMSO
Description: as §1

Perfluoropinacol = compound: OC(C(F)(F)F)(C(F)(F)F)C(O)(C(F)(F)F)C(F)(F)F [Perfluoropinacol]; details: in DMSO
Description: as §1

[4] = compound: O=S(=O)(OCC(F)(F)F)C(F)(F)C(F)(F)C(F)(F)C(F)(F)F [2,2,2-Trifluoroethyl perfluorobutanesulfonate]; details: in DMSO
Description: as §1

[5] = compound: O=C(CC(=O)C(F)(F)C(F)(F)C(F)(F)F)c1cccs1 [(Perfluorobutyryl)-2-thenoylmethane]; details: in DMSO
Description: as §1

[6] = compound: FC(F)(I)C(F)(F)C(F)(F)C(F)(F)C(F)(F)C(F)(F)I [1,6-Diiodoperfluorohexane]; details: 6700 nM; in DMSO
Description: as §1

Tetrafluorosuccinic acid = compound: O=C(O)C(F)(F)C(F)(F)C(=O)O [Tetrafluorosuccinic acid]; details: in DMSO
Description: as §1

| Test System | level (log10) [1] | level (log10) (Methotrexate; 1500 nM) | level (log10) (Methotrexate; 4400 nM) | level (log10) (Methotrexate; 13000 nM) | level (log10) (Methotrexate; 40000 nM) | level (log10) [2] | level (log10) ([3]; 6700 nM) | level (log10) ([3]; 20000 nM) | level (log10) ([3]; 60000 nM) | level (log10) (Perfluoropinacol; 6700 nM) | level (log10) (Perfluoropinacol; 20000 nM) | level (log10) ([4]; 6700 nM) | level (log10) ([4]; 20000 nM) | level (log10) ([4]; 60000 nM) | level (log10) ([5]; 6700 nM) | level (log10) ([5]; 20000 nM) | level (log10) [6] | level (log10) (Tetrafluorosuccinic acid; 6700 nM) | level (log10) (Tetrafluorosuccinic acid; 20000 nM) | level (log10) (Tetrafluorosuccinic acid; 60000 nM) |
| --- | --- | --- | --- | --- | --- | --- | --- | --- | --- | --- | --- | --- | --- | --- | --- | --- | --- | --- | --- | --- |
| BT:sIL-17A | -0.863 ± 0.015 | -0.0735 ± 0.14 | -0.02 ± 0.058 | -0.002 ± 0.11 | -0.197 ± 0.18 | -0.034 ± 0.12 | -0.0445 ± 0.0078 | -0.126 ± 0.15 | 0.079 ± 0.02 | -0.177 ± 0.11 | -0.642 ± 0.061 | 0.053 ± 0.2 | 0.214 ± 0.093 | 0.184 ± 0.1 | -0.135 ± 0.17 | -0.524 ± 0.047 | -0.079 | -0.0215 ± 0.084 | -0.0995 ± 0.00071 | -0.074 ± 0.021 |
| BT:sIL-17F | -0.816 ± 0.025 | -0.039 ± 0.11 | -0.02 ± 0.025 | -0.064 ± 0.088 | -0.179 ± 0.075 | 0.013 ± 0.065 | -0.024 ± 0.031 | -0.0565 ± 0.032 | 0.0095 ± 0.084 | -0.063 ± 0.028 | -0.23 ± 0.033 | 0.003 ± 0.023 | 0.0145 ± 0.0064 | -0.0275 ± 0.005 | -0.114 ± 0.061 | -0.45 ± 0.048 | 0.06 | 0.0105 ± 0.026 | 0.0175 ± 0.043 | -0.0215 ± 0.033 |
| BT:sTNF-alpha | -0.698 ± 0.042 | -0.067 ± 0.072 | -0.137 ± 0.11 | -0.0565 ± 0.023 | -0.0905 ± 0.1 | 0.093 ± 0.034 | 0.017 ± 0.11 | -0.0365 ± 0.033 | 0.0085 ± 0.043 | 0.0425 ± 0.061 | -0.146 ± 0.015 | 0.11 ± 0.076 | 0.165 ± 0.0021 | 0.189 ± 0.026 | -0.0385 ± 0.063 | -0.354 ± 0.13 | -0.145 | -0.0875 ± 0.14 | -0.076 ± 0.13 | -0.0795 ± 0.054 |
| LPS:CCL2/MCP-1 | -0.0285 ± 0.019 | -0.0335 ± 0.074 | -0.03 ± 0.055 | -0.0295 ± 0.1 | -0.0565 ± 0.064 | 0.0055 ± 0.011 | 0.0085 ± 0.04 | 0.021 ± 0.042 | 0.036 ± 0.034 | 0.0205 ± 0.00071 | -0.103 ± 0.0078 | -0.0345 ± 0.012 | -0.0435 ± 0.022 | -0.101 ± 0.067 | -0.0475 ± 0.0035 | -0.131 ± 0.0057 | 0.01 | -0.02 ± 0.0085 | -0.027 ± 0.014 | -0.0095 ± 0.043 |
| LPS:CD40 | -0.1475 ± 0.00071 | -0.033 ± 0.018 | -0.0475 ± 0.011 | -0.009 ± 0.028 | -0.0155 ± 0.03 | -0.068 ± 0.014 | -0.0235 ± 0.023 | -0.0275 ± 0.0092 | -0.013 ± 0.027 | -0.0285 ± 0.073 | -0.16 ± 0.03 | -0.014 ± 0.017 | -0.0495 ± 0.0035 | -0.104 ± 0.064 | -0.0095 ± 0.071 | -0.0805 ± 0.083 | -0.009 | -0.016 ± 0.0028 | -0.0185 ± 0.0092 | -0.007 ± 0.014 |
| LPS:CD62E/E-Selectin | -0.0155 ± 0.0035 | -0.01 ± 0.024 | -0.0185 ± 0.0021 | 0.005 ± 0.0014 | 0.005 ± 0.025 | 0.012 ± 0.018 | -0.009 ± 0.033 | -0.005 | -0.009 ± 0.0071 | 0.003 ± 0.0085 | -0.027 ± 0.028 | 0.0025 ± 0.019 | -0.004 ± 0.02 | -0.0795 ± 0.043 | -0.0755 ± 0.047 | 0.061 ± 0.016 | -0.024 | 0.0155 ± 0.036 | 0.003 ± 0.011 | 0.0275 ± 0.013 |
| LPS:CD69 | -0.052 ± 0.023 | -0.0175 ± 0.015 | -0.035 ± 0.033 | -0.0385 ± 0.044 | -0.0175 ± 0.0092 | -0.063 ± 0.11 | -0.0085 ± 0.015 | 0.012 ± 0.017 | 0.0295 ± 0.018 | -0.105 ± 0.063 | -0.192 ± 0.064 | 0.0015 ± 0.15 | 0.001 ± 0.088 | -0.073 ± 0.16 | -0.132 ± 0.0014 | -0.0555 ± 0.07 | -0.019 | -0.0265 ± 0.0035 | -0.0405 ± 0.0092 | -0.029 ± 0.025 |

From the supplement of paper PMC10331698
